Laboratory results reported in ChEMBL document CHEMBL1121629, “1-(Aminoalkyl)-6-aryl-4-H-s-triazolo[4,3-a][1,4]benzodiazepines with antianxiety and antidepressant activity” (1980).

How the values were obtained:
Type in all cases: functional
Mus musculus [1] = species on record: Mus musculus; assay: Tested for antagonism of nicotine-induced death (D) in mice
Mus musculus [2] = species on record: Mus musculus; assay: Tested for antagonism of nicotine-induced tonic extensor convulsions (TE) in mice
Mus musculus [3] = species on record: Mus musculus; assay: Tested for antagonism of bicuculline-induced tonic-extensor convulsions (B) in mice
Mus musculus [4] = species on record: Mus musculus; assay: Prolongation of hypoxic survival time (HS) in mice
Mus musculus [5] = species on record: Mus musculus; assay: Tested for antagonism of pentylenetetrazole-induced clonic convulsions (P) in mice
Mus musculus [6] = species on record: Mus musculus; assay: Tested for antagonism of oxotremorine hypothermia (OX) in mice
Mus musculus [7] = species on record: Mus musculus; assay: Tested for potentiation of yohimbine toxicity in aggregated mice(Y)
Mus musculus [8] = species on record: Mus musculus; assay: Tested for potentiation of gamma-butyrolactone induced sleep (gamma-B) in mice
Mus musculus [9] = species on record: Mus musculus; assay: Tested for stereotyped gnawing and licking behavior of mice pretreated with apomorphine (AG)

SMILES	ED50 (Mus musculus [1]) [mg/kg]	ED50 (Mus musculus [2]) [mg/kg]	ED50 (Mus musculus [3]) [mg/kg]	ED50 (Mus musculus [4]) [mg/kg]	ED50 (Mus musculus [5]) [mg/kg]	ED50 (Mus musculus [6]) [mg/kg]	ED50 (Mus musculus [7]) [mg/kg]	ED50 (Mus musculus [8]) [mg/kg]	ED50 (Mus musculus [9]) [mg/kg]
Clc1ccc2c(c1)C(c1ccccc1)=NCc1nnc(CNC3CC3)n1-2	0.28	0.25	1.6	40	3.1	> 50	> 50	1.1	> 50
C#CCN(C)Cc1nnc2n1-c1ccc(Cl)cc1C(c1ccccc1Cl)=NC2	0.045	0.036	0.1	0.4	0.021	> 50	> 50	0.1	21
Clc1ccc2c(c1)C(c1ccccc1)=NCc1nnc(CNCC3CC3)n1-2	0.2	0.2	1.9	1	3.1	> 50	50	1.3	> 50
C#CCN(C)Cc1nnc2n1-c1ccc(Cl)cc1C(c1ccccc1)=NC2	0.14	0.14	0.5	> 50	0.3	30	18	0.3	4.4
CCN(CC)OCc1nnc2n1-c1ccc(Cl)cc1C(c1ccccc1)=NC2	0.5	0.56	1.1	6.3	1.1	5.3	> 50	0.2	> 50
CN(C)CCc1nnc2n1-c1ccc(Cl)cc1C(c1ccccc1)=NC2	2.5	2.8	21	> 20	25	6	30	15	28
CN1CCN(Cc2nnc3n2-c2ccc(Cl)cc2C(c2ccccc2)=NC3)CC1	5	4.5	100	50	100	> 100	> 100	20	> 100
CC(N)c1nnc2n1-c1ccc(Cl)cc1C(c1ccccc1Cl)=NC2 (stereo unspecified)	0.025	0.023	0.2	0.02	2.2	> 50	> 50	0.2	> 50
CN(C)Cc1nnc2n1-c1ccc(Br)cc1C(c1ccccn1)=NC2	1	1	1.3	30	1.9	12.5	29.7	1.3	> 50
Clc1ccc2c(c1)C(c1ccccc1)=NCc1nnc(CCCN3CCCC3)n1-2	16	14	> 50	> 50	4.4	> 50	42	35.4	25
CC(c1nnc2n1-c1ccc(Cl)cc1C(c1ccccc1)=NC2)N(C)C (stereo unspecified)	5	5	12.5	> 50	17.7	10.5	17.7	17.7	21
CNC(C)c1nnc2n1-c1ccc(Cl)cc1C(c1ccccc1)=NC2 (stereo unspecified)	1	0.9	9	0.5	4.4	> 50	30	3.7	50
CN(C)Cc1nnc2n1-c1ccc(Cl)cc1C(c1ccccc1)NC2 (stereo unspecified)	25	25	42	> 50	14.9	> 50	> 50	5.3	> 50
NCCc1nnc2n1-c1ccc(Cl)cc1C(c1ccccc1)=NC2	6.3	7.1	17.7	> 50	10.5	4.4	50	7.4	35
CCN(CC)CCc1nnc2n1-c1ccc(Cl)cc1C(c1ccccc1)=NC2	2	2	> 50	40	25	42	> 50	15	> 50
CC(N)c1nnc2n1-c1ccc(Cl)cc1C(c1ccccc1)=NC2 (stereo unspecified)	0.35	0.3	0.6	3	0.6	> 50	> 50	0.12	> 50
NCCc1nnc2n1-c1ccc(Cl)cc1C(c1ccccc1Cl)=NC2	4.5	4.5	25	> 50	21	29.7	> 50	21	14.9
CN(C)Cc1nnc2n1-c1ccc(Cl)cc1C(c1ccccc1Cl)=NC2	0.06	0.06	0.8	0.1	0.1	> 30	> 30	0.3	17.8
C=CCNCc1nnc2n1-c1ccc(Cl)cc1C(c1ccccc1)=NC2	0.28	0.55	3.1	6	3.7	> 50	> 50	1.9	> 50
CN(Cc1nnc2n1-c1ccc(Cl)cc1C(c1ccccc1)=NC2)C1CC1	0.28	0.55	3.1	6	3.7	> 50	> 50	1.9	> 50
CNCc1nnc2n1-c1ccc(Cl)cc1C(c1ccccc1)=NC2	0.18	0.16	0.5	40	0.4	3.7	> 50	0.1	12.5
CN1C(=O)CN=C(c2ccccc2)c2cc(Cl)ccc21 [DIAZEPAM]	0.28	0.28	2.6	0.2	0.1	> 50	> 50	0.035	> 50
CC(N)Cc1nnc2n1-c1ccc(Cl)cc1C(c1ccccc1)=NC2 (stereo unspecified)	32	18	> 50	> 50	> 50	4.4	21	35	25
C#CCNC(C)c1nnc2n1-c1ccc(Cl)cc1C(c1ccccc1)=NC2 (stereo unspecified)	1.1	1.1	1.6	20	3.1	> 50	21	0.8	> 50
